Experimental findings from patent US20150344457A1, “METHODS OF INHIBITING PRMT5” (EPIZYME, INC., priority 2012, published 2015) are described below.

Some results are limits rather than exact numbers.

Usually IC50 stands for the concentration needed to halve the response being measured.

T1 sequence (O14744 with tags, fused parts or gaps): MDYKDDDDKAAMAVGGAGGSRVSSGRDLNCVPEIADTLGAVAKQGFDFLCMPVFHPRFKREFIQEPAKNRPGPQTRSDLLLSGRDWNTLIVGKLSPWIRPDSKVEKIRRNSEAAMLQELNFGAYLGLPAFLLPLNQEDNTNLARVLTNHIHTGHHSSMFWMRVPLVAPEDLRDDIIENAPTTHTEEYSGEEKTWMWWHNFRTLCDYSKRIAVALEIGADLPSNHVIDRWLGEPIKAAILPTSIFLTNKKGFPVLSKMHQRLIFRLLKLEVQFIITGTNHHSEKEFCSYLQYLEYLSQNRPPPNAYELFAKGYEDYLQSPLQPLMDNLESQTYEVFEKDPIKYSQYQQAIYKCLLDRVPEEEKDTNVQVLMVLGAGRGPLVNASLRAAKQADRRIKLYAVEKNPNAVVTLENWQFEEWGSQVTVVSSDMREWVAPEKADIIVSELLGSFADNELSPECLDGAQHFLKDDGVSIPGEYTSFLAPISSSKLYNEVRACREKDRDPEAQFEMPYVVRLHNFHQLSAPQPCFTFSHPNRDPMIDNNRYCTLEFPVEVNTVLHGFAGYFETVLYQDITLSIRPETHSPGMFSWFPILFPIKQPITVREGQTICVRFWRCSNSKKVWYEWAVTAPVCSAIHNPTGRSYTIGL
T1 sequence (Q9BQA1 with tags, fused parts or gaps partner limits assumed): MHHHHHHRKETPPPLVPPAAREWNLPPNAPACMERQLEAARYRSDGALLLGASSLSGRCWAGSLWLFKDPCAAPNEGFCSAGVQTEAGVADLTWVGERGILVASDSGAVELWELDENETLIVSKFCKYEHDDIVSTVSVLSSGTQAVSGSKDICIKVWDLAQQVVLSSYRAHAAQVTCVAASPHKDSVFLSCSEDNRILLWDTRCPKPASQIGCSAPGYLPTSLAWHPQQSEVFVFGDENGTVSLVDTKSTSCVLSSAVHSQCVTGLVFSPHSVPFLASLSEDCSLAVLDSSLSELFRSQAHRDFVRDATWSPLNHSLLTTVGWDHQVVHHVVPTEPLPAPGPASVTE

One assay concerns the target T1, PRMT5/MEP50 (Homo sapiens, UniProt O14744).
T1 construct: Expressed full-length human Flag-PRMT5/6His-MeP50 protein complex was purified; made in house; host or cells: Spodoptera frugiperda (SF9) insect cells, baculovirus (pDEST8)
In words: PRMT5 Biochemical Assay (PRMT5/MEP50 enzyme assay on peptide substrate, 3H-SAM Flashplate). To be noted: PRMT5 biochemical assay, Table C-2; read-out: Biochemical IC50.
Consider `O=C1CN(c2ccc(Cl)cc2)CCN1CC(O)CN1CCc2ccccc2C1` (stereo not shown) [Compound C7], for which the IC50 is below 100 nM.

For `Cc1ccc(N2CCN(CC(O)CN3CCc4ccccc4C3)C(=O)C2)cc1` (stereo not shown) [Compound C15], the IC50 was in the range of 101 to 1000 nM.

Staying with this assay, now noted: Table A-2; PRMT5/MEP50 4 nM, 3H-SAM 75 nM, peptide 40 nM; read-out: Biochemical IC50.
For `NS(=O)(=O)c1cccc(OCC(=O)NCC(O)CN2CCc3ccccc3C2)c1` (stereo not shown) [Compound A131], the IC50 lay in the range of 1000 to 10000 nM. Still for that read-out and setting: to `O=C(COC1CCCCC1)NCC(O)CN1CCc2ccccc2C1` (stereo not shown) [Compound A24] belongs 101 to 1000 nM; to `O=C(COc1cccc2[nH]c(=O)cnc12)NCC(O)CN1CCc2ccccc2C1` (stereo not shown) [Compound A125], 1000 to 10000 nM. Still for that read-out and setting: under `CN1CCC(c2ccccc2OCC(=O)NCC(O)CN2CCc3ccccc3C2)C1` (stereo not shown) [Compound A136] stands 1000 to 10000 nM. Still for that read-out and setting: to `O=C(COc1cccc(NC2CCOCC2)n1)NCC(O)CN1CCc2ccccc2C1` (stereo not shown) [Compound A121] belongs 1000 to 10000 nM. Regarding `O=C(COc1ccccc1C1CNC1)NCC(O)CN1CCc2ccccc2C1` (stereo not shown) [Compound A132], the IC50 was in the range of 1000 to 10000 nM. `O=C(COc1ccc(F)cc1)NCC(O)CN1CCc2ccccc2C1` (stereo not shown) [Compound A10]: the IC50 was in the range of 1000 to 10000 nM.

Turning to `O=C(CC1CCCCC1)NC[C@H](O)CN1CCc2ccccc2C1` [Compound A56], the IC50 lay in the range of 1000 to 10000 nM.

The assay is the same for the next values; noted with them: Table B-2; PRMT5/MEP50 4 nM, 3H-SAM 75 nM, peptide 40 nM; read-out: Biochemical IC50.
For the molecule `NS(=O)(=O)c1cccc(C(=O)NCC(O)CN2CCc3ccccc3C2)c1` (stereo not shown) [Compound B32.], the IC50 lay within 101 to 1000 nM. `O=C(NC[C@@H](O)CN1CCc2ccccc2C1)c1cccc(-c2ccccn2)c1` [Compound B19.]: the IC50 was below 100 nM. On the same count and under the same terms, to `NS(=O)(=O)c1ccccc1C(=O)NCC(O)CN1CCc2ccccc2C1` (stereo not shown) [Compound B33.] belongs 1000 to 10000 nM; to `CN(C)CCOc1cccc(C(=O)NCC(O)CN2CCc3ccccc3C2)c1` (stereo not shown) [Compound B28.], below 100 nM.

The assay is the same for the next values; noted with them: Table D-2; read-out: Biochemical IC50.
Consider `OC(COc1cccc(CNC2CCNCC2)c1)CN1CCc2ccccc2C1` (stereo not shown) [Compound D13], for which the IC50 was 1000 to 10000 nM. As for `Cn1cc(-c2cccc(OCC(O)CN3CCc4ccccc4C3)c2)cn1` (stereo not shown) [Compound D44], the IC50 is 1000 to 10000 nM. Still for that read-out and setting: to `COc1cc2c(cc1OC)CN(CC(O)COc1cccc(-c3ccc4ncn(C)c4c3)c1)CC2` (stereo not shown) [Compound D146] belongs above 40000 nM; to `OC(COc1cccc(-c2cccc(Oc3ccccc3)c2)c1)CN1CCc2ccccc2C1` (stereo not shown) [Compound D55], 1000 to 10000 nM; to `OC(COc1ccccc1C1CCCCC1)CN1CCc2ccccc2C1` (stereo not shown) [Compound D8], 1000 to 10000 nM. Take `CCOC(=O)C1c2ccccc2CCN1CC(O)COc1cccc(-c2ccc3ncn(C)c3c2)c1` (stereo not shown) [Compound D193]: the IC50 is above 40000 nM.

Regarding `COc1ccc(Cl)c(-c2cccc(OCC(O)CN3CCc4ccccc4C3)c2)c1` (stereo not shown) [Compound D64], the IC50 lay in the range of 1000 to 10000 nM.

For the molecule `O=C(Nc1cccc(OCC(O)CN2CCc3ccccc3C2)c1)c1ccnnc1` (stereo not shown) [Compound D184], the IC50 lay within 1000 to 10000 nM. Same read-out and setting: to `OC(COc1cccc(-c2cnccn2)c1)CN1CCc2ccccc2C1` (stereo not shown) [Compound D155] belongs 1000 to 10000 nM; to `CN(C(=O)c1cn(C)cn1)c1cccc(OCC(O)CN2CCc3ccccc3C2)c1` (stereo not shown) [Compound D197], 1000 to 10000 nM; to `Cn1cc2cc(-c3cccc(OCC(O)CN4CCc5ccccc5C4)c3)ccc2n1` (stereo not shown) [Compound D115], 1000 to 10000 nM.

Consider `OC(COc1cccc(-c2cccc(C(F)(F)F)c2)c1)CN1CCc2ccccc2C1` (stereo not shown) [Compound D87], for which the IC50 fell in the range of 1000 to 10000 nM. Regarding `COc1c(COCC(O)CN2CCc3ccccc3C2)ccc2ccccc12` (stereo not shown) [Compound D279], the IC50 fell in the range of 1000 to 10000 nM. `O=C(Nc1ccccn1)c1cccc(OCC(O)CN2CCc3ccccc3C2)c1` (stereo not shown) [Compound D267]: the IC50 fell in the range of 101 to 1000 nM. On the same count and under the same terms, to `Cn1cnc2ccc(-c3cccc(OCC(O)CN4CCc5ccccc5C4CC(N)=O)c3)cc21` (stereo not shown) [Compound D202] belongs above 40000 nM; to `CC1Cc2ccccc2CN1CC(O)COc1cccc(-c2ccc3ncn(C)c3c2)c1` (stereo not shown) [Compound D122], 1000 to 10000 nM; to `OC(COc1cccc(-c2ccc(Cl)cc2)c1)CN1CCc2ccccc2C1` (stereo not shown) [Compound D69], 1000 to 10000 nM.
